Common to all, as to type: physicochemical
Series [1] in a line: hygroscopicity of the solid form. Conditions: crystalline form, anhydrous mono-meglumine salt.
Series [2] is described as follows: gel formation on contact with aqueous vehicles. To be noted: compound alone, on contact with aqueous vehicles such as water, phosphate buffer and hydrochloric acid. The source says: Without wishing to be bound by theory, it appears that such gel formation, upon oral administration, can hinder dissolution and/or bioavailability of such compounds, leading to, for example, stomach compaction and non-proportional plasma levels of drug in the subject as compared to the dose administered. […] Consequently, the pharmaceutical compositions herein are also contemplated for use in or further combination with any conventional formulation or route or method of administration where contact with water or other aqueous vehicles may occur, e.g., contact with blood or other body fluids as in various forms of parenteral administration (e.g., contact with blood in intravenous administration, implants, and the like), contact with mucous membranes (e.g., suppositories via vaginal or rectal administration, dry powder aerosols for pulmonary administration, transdermal patches or lozenges applied to mucous membranes, and the like). In such routes of administration, the benefits of the certain pharmaceutical compositions, such as resistance to gel formation, greater dissolution and bioavailability, dose proportionality, stability to storage, or the like may be beneficial.

A short description of series [3]: solubility in unbuffered water. Conditions: free acid.

A value given as a limit tells only on which side of the number the result lay.

“6-carboxy-2-(3,5-dichlorophenyl)-benzoxazole meglumine [Compound 1]”: the hygroscopicity result in series [1] is “non-hygroscopic”.

Regarding `O=C(O)c1ccc2nc(-c3cc(Cl)cc(Cl)c3)oc2c1` [free acid, 6-carboxy-2-(3,5-dichlorophenyl)-benzoxazole], the gel formation result in series [2] is on record as “can form a gel”. The solubility (commonly the dissolved amount per volume that the medium holds) in series [3] is < 11 µg/mL.

(Values after patent publication US9249112B2, “Solid forms of a transthyretin dissociation inhibitor” (PFIZER INC., priority 2011, dated 2016).)
